Measured values reported in patent US20220401514A1, “ANTIMICROBIAL, BACTERIOPHAGE-DERIVED POLYPEPTIDES AND THEIR USE AGAINST GRAM-NEGATIVE AND ACID-FAST BACTERIA” (CONTRAFECT CORPORATION, priority 2019, published 2022).
Like-named read-outs stand apart in the source and are kept apart here.

What was measured:
[1] = tested on: Klebsiella pneumoniae; experiment: microbe, parasite or virus in culture; format: cell-based; conditions: CAA without human serum
[2] = tested on: Acinetobacter baumannii; experiment: microbe, parasite or virus in culture; format: cell-based
[3] = Stability assessment in 100% CAA; format: in vitro ADME; set-up: unit not given beside the values
Method: Stability was assessed after incubation in 100% human serum at 37° C. after 10 minutes, 1 hour, and 2 hours.
Stability assessment was further conducted in 100% CAA and rabbit serum using the same methodology discussed above.

[4] = tested on: Escherichia coli; experiment: microbe, parasite or virus in culture; format: cell-based
Summary of the method: (§1)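 Medium: CAA with added human serum. Peptides tested for minimal inhibitory concentration against each strain.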

[5] = tested on: Enterobacter cloacae; experiment: microbe, parasite or virus in culture; format: cell-based
Summary of the method: as §1

[6] = tested on: S. maltophilia; experiment: MIC against S. maltophilia isolates; format: cell-based, Stenotrophomonas maltophilia
Summary of the method: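 MIC in μg/mL for Chp peptides across several S. maltophilia isolates, n denoting the number of isolates tested.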

[7] = tested on: M. intracellulare; experiment: 45 hr MIC against M. intracellulare (NTM); format: cell-based, Mycobacterium intracellulare; conditions: M. intracellulare (Cuttino and McCabe) Runyon ATCC 13950
[8] = tested on: P. aeruginosa strain CFS-1292; experiment: MIC at pH 6, pH 7 and pH 8; format: cell-based, Pseudomonas aeruginosa
Method: The Chp peptides were further evaluated at varying pH levels. The MIC values were determined at pH 6, pH 7, and pH 8 for 18 different Chp peptides against P. aeruginosa strain CFS-1292. […]

[9] = tested on: M. scrofulaceum; experiment: 45 hr MIC against M. scrofulaceum (NTM); format: cell-based, Mycobacterium scrofulaceum; conditions: M. scrofulaceum Prissick and Masson ATCC 19981
[10] = tested on: P. aeruginosa strain CFS-1292; experiment: MIC in presence of divalent cations (calcium chloride, magnesium sulfate); format: cell-based, Pseudomonas aeruginosa
Method: Next, Chp peptides were evaluated in the presence of different divalent cations. […]; (2) in the presence of 2 mM calcium chloride alone; (3) in the presence of 1 mM magnesium sulfate alone; and (4) in the presence of both 2 mM calcium chloride and 1 mM magnesium sulfate. […]

[11] = tested on: M. avium; experiment: 45 hr MIC against M. avium (NTM); format: cell-based, Mycobacterium avium; conditions: M. avium Chester ATCC 700898
[12] = tested on: Klebsiella pneumoniae; format: cell-based
Method: (§2) Determination of Minimal Inhibitory Concentrations (MIC).
Additional MIC testing was performed for several peptides against the ESKAPE pathogens Escherichia coli, Enterobacter cloacae, Klebsiella pneumoniae, and Acinetobacter baumannii, in CAA supplemented with human serum (Table D).

[13] = tested on: Pseudomonas aeruginosa; experiment: microbe, parasite or virus in culture; format: cell-based; conditions: for MIC: CAA without human serum
[14] = tested on: Pseudomonas aeruginosa, Escherichia coli, Enterobacter cloacae, Klebsiella pneumoniae, and Acinetobacter baumannii; experiment: MIC against a range of Gram-negative organisms (statements covering several species); format: cell-based; conditions: Tables 40-44 isolates
Summary of the method: as §1

[15] = tested on: carbapenem-resistant P. aeruginosa clinical isolate CFS-1292; experiment: MIC by modified CLSI broth microdilution against P. aeruginosa CFS-1292 (CAA, CAA + human serum); format: cell-based, Pseudomonas aeruginosa; conditions: 100% CAA; 1st run or single value
[16] = tested on: carbapenem-resistant bacterial strains; experiment: organism not typed; format: cell-based
Source text: as §2

[17] = tested on: Mycobacterium tuberculosis strains
Method: MIC values for various Chp peptides were determined using the CLSI method for broth microdilution in 96-well microtiter format.
Next, MIC values for various Chp peptides were determined using the CLSI method above for broth microdilution in 96-well microtiter format for two different Mycobacterium tuberculosis strains. The MIC was determined as explained above for the NTM strains.

[18] = tested on: M. kansasii Hauduroy ATCC 12478; experiment: 45 hr MIC against M. kansasii (NTM), Mueller Hinton broth; format: cell-based, Mycobacterium kansasii
[19] = tested on: P. aeruginosa strain CFS-1292; experiment: MIC in presence of mouse, rat, rabbit and human serum ([…] each); format: cell-based, Pseudomonas aeruginosa; conditions: P. aeruginosa CFS-1292
Method: The activity of several Chp peptides against P. aeruginosa strain CFS-1292 in animal serum was evaluated. […] Rat, mouse, and rabbit serum were all obtained from pooled gender samples.

[20] = A. baumannii isolates (n per peptide in table)
[21] = E. coli isolates (n per peptide in table)
[22] = E. cloacae isolates (n per peptide in table)
[23] = S. maltophilia isolates (n per peptide in table)
[24] = K. pneumoniae isolates (n per peptide in table)
[25] = P. aeruginosa isolates (n per peptide in table)

MARRRYRLPRRRSRRLFSRTALRMHPRNRLRRIMRGGIRF [Chp6]
MIC ([1]; Klebsiella pneumoniae (ATCC 10031, MIC control strain), RSC 814): 4 µg/mL
MIC ([1]; Klebsiella pneumoniae (g2-3 HM35K), RSC 1138): 4 µg/mL
MIC ([1]; Klebsiella sp. (HM-44; colon, Crohn's disease), RSC 1139): 1 µg/mL
MIC ([1]; Klebsiella spp. (HM-223; gut of Crohn's disease patient), RSC 1131): 4 µg/mL
MIC50 [2, 20]: 0.25 µg/mL
MIC100 [2, 20]: 0.5 µg/mL
MIC Range [2, 20]: 0.125 to 1 µg/mL
MIC ([2]; Acinetobacter baumannii (clinical isolate HSS), RSC 30, CAA without human serum): 2 µg/mL
MIC ([2]; Acinetobacter baumannii (clinical isolate HSS), RSC 32, CAA without human serum): 2 µg/mL
MIC ([2]; Acinetobacter baumannii ATCC BAA 747, CAA supplemented with human serum): 1 µg/mL
MIC (100% CAA) [3]: 0.25
MIC ([4]; E. coli (ATCC 25922, MIC control strain), RSC 813, CAA without human serum): 2 µg/mL
MIC ([4]; E. coli (HM346, colon, Crohn's disease), RSC 1212, CAA without human serum): 2 µg/mL
MIC50 [4, 21]: 0.5 µg/mL
MIC100 [4, 21]: 1 µg/mL
MIC Range [4, 21]: 0.25 to 2 µg/mL
MIC ([4]; Escherichia coli ATCC 25922, CAA supplemented with human serum): 1 µg/mL
MIC50 [5, 22]: 0.5 µg/mL
MIC100 [5, 22]: 1 µg/mL
MIC Range [5, 22]: 0.25 to 2 µg/mL
MIC ([5]; Enterobacter cloacae (ATCC 13047, MIC control strain), RSC 1240, CAA without human serum): 4 µg/mL
MIC ([5]; Enterobacter cloacae ATCC 13047, CAA supplemented with human serum): 2 µg/mL
MIC50 [6, 23]: 0.5 µg/mL
MIC100 [6, 23]: 1 µg/mL
MIC Range [6, 23]: 0.25 to 1 µg/mL
activity against S. maltophilia ([6]; Table 45 isolates): active
45 hr MIC [7]: 0.5 µg/mL
MIC ([8]; CAA media (pH 7)): 1 µg/mL
MIC ([8]; pH 6): 2 µg/mL
MIC ([8]; pH 7): 0.25 µg/mL
MIC ([8]; pH 8): 1 µg/mL
45 hr MIC [9]: 2 µg/mL
MIC ([10]; CAA media + 1 mM MgSO4): 1 µg/mL
MIC ([10]; CAA media + 2 mM CaCl2): 0.5 µg/mL
MIC ([10]; CAA media + + 1 mM MgSO4): 1 µg/mL
MIC ([10]; CAA media alone): 1 µg/mL
45 hr MIC [11]: 1 µg/mL
MIC50 [12, 24]: 0.5 µg/mL
MIC100 [12, 24]: 1 µg/mL
MIC Range [12, 24]: 0.125 to 1 µg/mL
MIC ([12]; Klebsiella pneumoniae HM-44, CAA supplemented with human serum): 0.125 µg/mL
MIC ([13]; P. aeruginosa 453 (Human clinical isolate, HSS), RSC 1292): 2 µg/mL
MIC ([13]; P. aeruginosa (ATCC 14213, human hip wound), RSC 1111): 4 µg/mL
MIC ([13]; P. aeruginosa (ATCC 15152, abscess in middle ear), RSC 1110): 2 µg/mL
MIC ([13]; P. aeruginosa (ATCC 15692, infected wound), RSC 489): 2 µg/mL
MIC ([13]; P. aeruginosa (ATCC 15692, infected wound), RSC 1115): 4 µg/mL
MIC ([13]; P. aeruginosa (ATCC 17646, human liver abscess), RSC 1109): 4 µg/mL
MIC ([13]; P. aeruginosa (ATCC 19142, tracheobronchial secretion), RSC 1108): 2 µg/mL
MIC ([13]; P. aeruginosa (ATCC 25102, bacteriophage host), RSC 1114): 2 µg/mL
MIC ([13]; P. aeruginosa (ATCC 27853, MIC control strain), RSC 815): 1 µg/mL
MIC ([13]; P. aeruginosa (ATCC BAA-27, lab strain), RSC 1113): 2 µg/mL
MIC ([13]; P. aeruginosa (PAO1, alternate source, HER1018), RSC 490): 1 µg/mL
MIC50 [13, 25]: 1 µg/mL
MIC100 [13, 25]: 1 µg/mL
MIC Range [13, 25]: 0.5 to 1 µg/mL
activity (good = MIC100 of ≤4) against all of P. aeruginosa, K. pneumoniae, A. baumannii, E. cloacae, and E. coli [14]: good activity
MIC (μg/mL) against CFS-1292 in 100% CAA (1st run/2nd run) [15]: 0.5 µg/mL
MIC ([16]; carbapenem-resistant isolate PA19): 0.5 µg/mL
MIC ([16]; carbapenem-resistant isolate PA20): 1 µg/mL
MIC ([16]; carbapenem-resistant isolate PA21): 1 µg/mL
MIC ([16]; carbapenem-resistant isolate PA22): 1 µg/mL
MIC ([16]; carbapenem-resistant isolate PA23): 1 µg/mL
MIC ([16]; carbapenem-resistant isolate PA24): 1 µg/mL
MIC ([16]; carbapenem-resistant isolate WLC-452): 0.25 µg/mL
MIC ([17]; Mycobacterium tuberculosis (Zopf) Lehmann and Neumann ATCC 25177): 32 µg/mL
MIC ([17]; Mycobacterium tuberculosis (Zopf) Lehmann and Neumann ATCC 35817): 4 µg/mL
45 hr MIC [18]: 1 µg/mL
MIC BALB/C Mouse Serum ([19]; BALB/C mouse serum […]): 32 µg/mL
MIC CAA ([19]; CAA): 1 µg/mL
MIC New Zealand White Rabbit Serum ([19]; New Zealand White rabbit serum […]): 4 µg/mL
MIC Sprague Dawley Rat Serum ([19]; Sprague Dawley rat serum […]): 4 µg/mL
MIC Human Serum ([19]; human serum […]): 1 µg/mL
